23 compounds from ChEMBL document CHEMBL1697731, “Cheminformatics analysis of assertions mined from literature that describe drug-induced liver injury in different species” (Chem Res Toxicol, 2010) can be followed below.

Data set [1] has as its system Hepatotoxicity. The data set is described as follows: Literature-mined compound from Fourches et al multi-species drug-induced liver injury (DILI) dataset, effect in rodents. The settings on record: rodentia.
Data set [2] concerns Hepatotoxicity. Kind of data set: Literature-mined compound from Fourches et al multi-species drug-induced liver injury (DILI) dataset, effect in non-rodents.
For data set [3], the system named is Hepatotoxicity. The data set is described as follows: Literature-mined compound from Fourches et al multi-species drug-induced liver injury (DILI) dataset, effect in humans. The following applies: human.

Consider `NS(=O)(=O)c1cc2c(cc1Cl)NCNS2(=O)=O` [HYDROCHLOROTHIAZIDE], for which the results for the Hepatotoxicity result in the data set with Hepatotoxicity [1], in the data set with Hepatotoxicity [2] and with Hepatotoxicity [3] were “no drug-induced liver injury reported”, “no drug-induced liver injury reported” and “drug-induced liver injury reported”, respectively.

Consider `CC[C@]12C=CCN3CC[C@@]4(c5cc([C@@]6(C(=O)OC)C[C@@H]7C[C@@H](C(C)(F)F)CN(Cc8c6[nH]c6ccccc86)C7)c(OC)cc5N(C)[C@H]4[C@@](O)(C(=O)OC)[C@@H]1OC(C)=O)[C@@H]32` [VINFLUNINE], for which the figures for the Hepatotoxicity entry in the data set with Hepatotoxicity [1], in the data set on Hepatotoxicity [2] and in the data set on Hepatotoxicity [3] were “drug-induced liver injury reported”, “no drug-induced liver injury reported” and “no drug-induced liver injury reported”, respectively.

In the case of `CCOC(=O)[C@H](CCc1ccccc1)N[C@@H](C)C(=O)N1C(=O)N(C)C[C@H]1C(=O)O`, the results for the Hepatotoxicity result in the data set with Hepatotoxicity [1], in the data set with Hepatotoxicity [2] and in the data set with Hepatotoxicity [3] were “drug-induced liver injury reported”, “no drug-induced liver injury reported” and “no drug-induced liver injury reported”, respectively.

With `COC(=O)C[C@](O)(CCCC(C)(C)O)C(=O)O[C@@H]1C(OC)=C[C@]23CCCN2CCc2cc4c(cc2[C@H]13)OCO4` [OMACETAXINE MEPESUCCINATE], the Hepatotoxicity entry in the data set on Hepatotoxicity [1] was “no drug-induced liver injury reported”; in the data set with Hepatotoxicity [2] it was “no drug-induced liver injury reported”; with Hepatotoxicity [3], “drug-induced liver injury reported”.

As to SILYMARIN, the Hepatotoxicity result in the data set on Hepatotoxicity [1] is “drug-induced liver injury reported”; in the data set on Hepatotoxicity [2], “no drug-induced liver injury reported”; with Hepatotoxicity [3], “drug-induced liver injury reported”.

For the compound `COc1ccc([C@@H]2CC(=O)c3c(O)cc(O[C@@H]4O[C@H](CO[C@@H]5O[C@@H](C)[C@H](O)[C@@H](O)[C@H]5O)[C@@H](O)[C@H](O)[C@H]4O)cc3O2)cc1O` [HESPERIDIN], the Hepatotoxicity entry is listed as “drug-induced liver injury reported” with Hepatotoxicity [1], “no drug-induced liver injury reported” with Hepatotoxicity [2] and “drug-induced liver injury reported” in the data set on Hepatotoxicity [3].

For the compound `CC(C)CN(C[C@@H](O)[C@H](Cc1ccccc1)NC(=O)O[C@H]1CCOC1)S(=O)(=O)c1ccc(N)cc1`, the values for the Hepatotoxicity entry in the data set on Hepatotoxicity [1], in the data set on Hepatotoxicity [2] and with Hepatotoxicity [3] were “no drug-induced liver injury reported”, “no drug-induced liver injury reported” and “drug-induced liver injury reported”, respectively.

Take `N[C@@H](Cc1cc(I)c(Oc2cc(I)c(O)c(I)c2)c(I)c1)C(=O)O` [LEVOTHYROXINE]: the Hepatotoxicity entry with Hepatotoxicity [1], with Hepatotoxicity [2] and with Hepatotoxicity [3] was “drug-induced liver injury reported” each time.

With `C=O` [FORMALDEHYDE], the Hepatotoxicity result with Hepatotoxicity [1] (Liver) was “drug-induced liver injury reported”; in the data set on Hepatotoxicity [2] (Liver) it was “no drug-induced liver injury reported”; with Hepatotoxicity [3] (Liver), “drug-induced liver injury reported”.

As to `CO[C@@]1(NC(=O)C(C(=O)O)c2ccc(O)cc2)C(=O)N2C(C(=O)O)=C(CSc3nnnn3C)CO[C@@H]21` (some centres undefined) [MOXALACTAM], the Hepatotoxicity entry in the data set on Hepatotoxicity [1] is “no drug-induced liver injury reported”; in the data set with Hepatotoxicity [2] it was “no drug-induced liver injury reported”; in the data set with Hepatotoxicity [3] it was “drug-induced liver injury reported”.

Regarding `CN1CC[C@H](c2c(O)cc(O)c3c(=O)cc(-c4ccccc4Cl)oc23)[C@H](O)C1` [ALVOCIDIB], the results for the Hepatotoxicity result in the data set on Hepatotoxicity [1], in the data set on Hepatotoxicity [2] and in the data set with Hepatotoxicity [3] were “no drug-induced liver injury reported”, “no drug-induced liver injury reported” and “drug-induced liver injury reported”, respectively.

As to `C=Cc1c(C)c2cc3nc(c(CC(=O)NC(CC(=O)O)C(=O)O)c4nc(cc5[nH]c(cc1[nH]2)c(C)c5CC)C(C)=C4C(=O)O)C(CCC(=O)O)C3C` (centres undefined), the Hepatotoxicity result in the data set with Hepatotoxicity [1] is recorded as “drug-induced liver injury reported”; in the data set with Hepatotoxicity [2], “no drug-induced liver injury reported”; in the data set with Hepatotoxicity [3] it was “no drug-induced liver injury reported”.

Turning to `Cc1ncc2n1-c1ccc(Cl)cc1C(c1ccccc1F)=NC2` [MIDAZOLAM], the figures for the Hepatotoxicity entry in the data set on Hepatotoxicity [1], in the data set with Hepatotoxicity [2] and in the data set on Hepatotoxicity [3] were “drug-induced liver injury reported”, “no drug-induced liver injury reported” and “no drug-induced liver injury reported”, respectively.

As to `O=C1CN(/N=C/c2ccc([N+](=O)[O-])o2)C(=O)N1` [NITROFURANTOIN], the Hepatotoxicity entry in the data set on Hepatotoxicity [1] (Liver), in the data set with Hepatotoxicity [2] (Liver) and in the data set with Hepatotoxicity [3] (Liver) was “drug-induced liver injury reported” throughout.

With `COc1ccc(OC)c(Cc2cnc3nc(N)nc(N)c3c2C)c1` [PIRITREXIM], the Hepatotoxicity result is “no drug-induced liver injury reported” with Hepatotoxicity [1], “no drug-induced liver injury reported” with Hepatotoxicity [2] and “drug-induced liver injury reported” with Hepatotoxicity [3].

With `C#C[C@]1(O)CC[C@H]2[C@@H]3CCc4cc(OC)ccc4[C@H]3CC[C@@]21C` [MESTRANOL], the Hepatotoxicity entry in the data set on Hepatotoxicity [1], with Hepatotoxicity [2] and in the data set on Hepatotoxicity [3] was “drug-induced liver injury reported” each time.

On to `Nc1ccc(C(=O)O)c(O)c1` [AMINOSALICYLIC ACID], for which the Hepatotoxicity entry in the data set with Hepatotoxicity [1] is “no drug-induced liver injury reported”; in the data set with Hepatotoxicity [2], “no drug-induced liver injury reported”; in the data set with Hepatotoxicity [3] it was “drug-induced liver injury reported”.

For the compound `CC(CN1c2ccccc2Sc2ccccc21)N(C)C` (centres undefined) [PROMETHAZINE], the Hepatotoxicity entry with Hepatotoxicity [1] was “drug-induced liver injury reported”; in the data set with Hepatotoxicity [2], “drug-induced liver injury reported”; with Hepatotoxicity [3], “no drug-induced liver injury reported”.

For the compound `NC(=O)c1cccnc1` [NIACINAMIDE], the figures for the Hepatotoxicity result with Hepatotoxicity [1], with Hepatotoxicity [2] and in the data set on Hepatotoxicity [3] were “drug-induced liver injury reported”, “no drug-induced liver injury reported” and “drug-induced liver injury reported”, respectively.

In the case of `Oc1c(Cl)cc(Cl)c(Cl)c1Cc1c(O)c(Cl)cc(Cl)c1Cl` [HEXACHLOROPHENE], the Hepatotoxicity result with Hepatotoxicity [1] is “drug-induced liver injury reported”; in the data set with Hepatotoxicity [2], “no drug-induced liver injury reported”; with Hepatotoxicity [3], “no drug-induced liver injury reported”.

For the compound `O=P(O)(O)C(Cl)(Cl)P(=O)(O)O` [CLODRONIC ACID], the Hepatotoxicity result in the data set with Hepatotoxicity [1] was “drug-induced liver injury reported”; in the data set on Hepatotoxicity [2], “no drug-induced liver injury reported”; with Hepatotoxicity [3], “no drug-induced liver injury reported”.

As to `CC(c1ccc(Cl)c(Cl)c1)N1N=C(N)CC1=O` (centres undefined) [MUZOLIMINE], the Hepatotoxicity result with Hepatotoxicity [1] was “no drug-induced liver injury reported”; in the data set on Hepatotoxicity [2], “no drug-induced liver injury reported”; in the data set with Hepatotoxicity [3], “drug-induced liver injury reported”.

For the compound `O=c1n(CCCN2CCN(c3cccc(Cl)c3)CC2)nc2ccccn12` [TRAZODONE], the Hepatotoxicity entry is “no drug-induced liver injury reported” in the data set on Hepatotoxicity [1], “no drug-induced liver injury reported” in the data set on Hepatotoxicity [2] and “drug-induced liver injury reported” in the data set with Hepatotoxicity [3].
